Reference: PMC6471225 (Molecules, 2019)

What was measured:
TBEV Neudoerfl strain [1] = assay type: cell-based, tick-borne encephalitis virus
TBEV Neudoerfl strain [2] = experiment: microbe, parasite or virus in culture; assay type: cell-based, tick-borne encephalitis virus; conditions: for IC50: Tick-borne encephalitis virus, A549, 72 h, read-out: half-maximum inhibitory concentration (IC50), reduction of viral titer by 50%
TBEV Hypr strain [3] = assay type: cell-based, tick-borne encephalitis virus
in vitro = conditions: human, cytotoxic concentration (CC50) required to reduce cell viability by 50%
TBEV Hypr strain [4] = assay type: cell-based, tick-borne encephalitis virus; remark: listed apart in the source
TBEV E and prM proteins = assay type: cell-based, tick-borne encephalitis virus
A549 cells = conditions: human

| SMILES | inhibition of TBEV infection, size and number of plaques (TBEV Neudoerfl strain [1]) | CC50 (in vitro) [µM] | cell viability after inhibitory treatment (protection from TBEV-induced CPE) (TBEV Hypr strain [4]) [%] | reduction of number of plaques vs DMSO-treated infected cells (TBEV Neudoerfl strain [1]) | selectivity index (SI) CC50/IC50 (TBEV Neudoerfl strain [2]) | IC50 (TBEV Neudoerfl strain [2]) [µM] | further results |
| --- | --- | --- | --- | --- | --- | --- | --- |
| CC(=O)O[C@H]1[C@H](C)O[C@H](OC[C@H]2O[C@@H](n3ccc(=O)[nH]c3=O)[C@@H]3OC(C)(C)O[C@@H]32)C[C@@H]1O[Si](C)(C)C(C)(C)C [Compound 1] | minor or no antiviral effect | 74 |  |  |  |  | effect on viral growth (TBEV Neudoerfl strain [2]): did not affect viral growth; effect on viral growth (TBEV Hypr strain [3]): did not affect viral growth |
| CC(=O)O[C@H]1[C@H](C)O[C@H](OC[C@H]2O[C@@H](n3ccc(=O)n(C(=O)c4ccccc4)c3=O)[C@@H]3OC(C)(C)O[C@@H]32)C[C@@H]1O[Si](C)(C)C(C)(C)C [Compound 2] | nearly a complete inhibition of TBEV infection | 141 | ~99 | 98% | 26.6 | 5.3 | plaque formation (TBEV Neudoerfl strain [1]): no plaques were detected; TBEV titer (TBEV Neudoerfl strain [2]): undetectable levels |
| CC1(C)OC2C(COC3CC(OCc4ccccc4)C(OCc4ccccc4)C(COCc4ccccc4)O3)OC(n3ccc(=O)[nH]c3=O)C2O1 (stereo not shown) [Compound 3] | minor or no antiviral effect | 97 |  |  |  |  | effect on viral growth (TBEV Neudoerfl strain [2]): did not affect viral growth; effect on viral growth (TBEV Hypr strain [3]): did not affect viral growth |
| CC1(C)OC2C(COC3CC(OCc4ccccc4)C(OCc4ccccc4)C(COCc4ccccc4)O3)OC(n3ccc(=O)n(C(=O)c4ccccc4)c3=O)C2O1 (stereo not shown) [Compound 4] | nearly a complete inhibition of TBEV infection | 119 | ~99 | 90% | 85 | 1.4 | plaque formation (TBEV Neudoerfl strain [1]): no plaques were detected; reduction of the viral titer vs infected mock-treated cells (TBEV Neudoerfl strain [2]): 10^4 fold; virus detection in supernatant (TBEV Neudoerfl strain [2]): no virus was detected; synthesis of E and prM proteins (TBEV E and prM proteins): completely inhibited the synthesis of both proteins |
| CC1(C)OC2C(COC3CC(OCc4ccccc4)C(OCc4ccccc4)C(CO[Si](C)(C)C(C)(C)C)O3)OC(n3ccc(=O)[nH]c3=O)C2O1 (stereo not shown) [Compound 5] |  | 79 |  |  |  |  |  |
| CC(=O)OCC1OC(OCC2OC(n3ccc(=O)[nH]c3=O)C3OC(C)(C)OC23)CC(OC(C)=O)C1OC(C)=O (stereo not shown) [Compound 6] |  | 196 |  |  |  |  |  |
| CC(=O)OCC1OC(OCC2OC(n3ccc(=O)[nH]c3=O)C3OC(C)(C)OC23)CC(OC(C)=O)C1OC(C)=O (stereo not shown) [Compound 7] |  |  |  |  |  |  | CC50 (A549 cells): 223 µM |
| CC(=O)OCC1OC(OCC2OC(n3ccc(=O)n(Cc4ccccc4)c3=O)C3OC(C)(C)OC23)CC(OC(C)=O)C1OC(C)=O (stereo not shown) [Compound 8] |  | 225 |  |  |  |  |  |
| O=c1ccn(C2OC(COC3CC(O)C(O)C(CO)O3)C(O)C2O)c(=O)[nH]1 (stereo not shown) [Compound 9] |  | 238 |  |  |  |  |  |
| CC1(C)OC2C(COC3CC(OCc4ccccc4)C(OCc4ccccc4)C(CO[Si](C)(C)C(C)(C)C)O3)OC(n3ccc(=O)n(C(=O)c4ccccc4)c3=O)C2O1 (stereo not shown) [Compound 10] | nearly a complete inhibition of TBEV infection | 121 | 90 | 82–96% | 18.6 | 6.5 |  |
| CC1(C)OC2C(COC3CC(OCc4ccccc4)C(OCc4ccccc4)C(CO)O3)OC(n3ccc(=O)n(C(=O)c4ccccc4)c3=O)C2O1 (stereo not shown) [Compound 11] | nearly a complete inhibition of TBEV infection | 141 | 81 | 82–96% | 13.8 | 10.2 |  |
